# Measured values published in patent US8586747B2, “3,3-dimethyl tetrahydroquinoline derivatives” (Hoffmann-La Roche Inc., priority 2010, dated 2013).
# Test system: AMP-activated protein kinase (AMPK)
# Assay: ADP Quest assay for AMPK activators
# Format: biochemical
# Parameters: key: fold AMPK activation with vs without activator at 30 µM
# Settings: fold of AMPK activation to phosphorylate SAMS peptide without and with an activator at the concentration of 30 µM
# Experimental: ADP Quest™ Assay for AMPK Activators
# This method evaluates AMP-activated protein kinase (AMPK) activity through detecting the accumulation of ADP product using an ADP Quest kit and determining the E30 values of the small molecular AMPK activators. ADP Quest kit (DiscoveRx, Fremont, Calif.) is stored at −20° C. before use. Before an experiment, thaw the kit (include assay buffer, ADP standard solution, reagent A and reagent B) and equilibrate to room temperature. Dispense the ADP Quest reagents into single-use aliquots and store at −20° C. The compound concentrations typically range from 0 µM to 100 µM by 2-fold dilution. AMP concentrations range from […] to 1 mM as the reference control. In an assay, thaw and equilibrate the assay buffer, reagent A and reagent B to room temperature for 30 minutes prior to use. Mix ATP, SAMS peptide substrate and compound, and place them into the 384-well assay plate. Add reagent A and B based on the assay kit protocol. Incubate the assay plate at room temperature for 30 minutes after addition the mixture followed by the addition of AMPK protein (Invitrogen, CA) to initiate the AMPK phosphorylation reaction. At the same time, reactions with AMPK activator AMP in the absence of enzyme is included as blank control. The reaction fluorescence signal is monitored and recorded on Envision in kinetic mode with the excitation wavelength of 530 nm and emission wavelength of 590 nm. The E30 value, defined as the fold of AMPK activation to phosphorylate SAMS peptide without and with an activator at the concentration of 30 µM, is calculated and analyzed using Prism 5.0.
row,E30,SMILES
1,1.5,"CC(C)C1COC(=O)N1c1cccc(C2Nc3ccc(C(=O)O)cc3CC2(C)C)c1 (stereo in doubt) [Example 119, 2-[3-((S)-4-Isopropyl-2-oxo-oxazolidin-3-yl)-phenyl]-3,3-dimethyl-1,2,3,4-tetrahydro-quinoline-6-carboxylic acid]"
2,1.34,"CC1(C)Cc2cc(C(=O)O)ccc2NC1c1cccc(N2C(=O)OCC2Cc2ccccc2)c1 (stereo in doubt) [Example 124, 2-[3-((S)-4-Benzyl-2-oxo-oxazolidin-3-yl)-phenyl]-3,3-dimethyl-1,2,3,4-tetrahydro-quinoline-6-carboxylic acid]"
3,1.26,"CC1(C)Cc2cc(C(=O)O)ccc2NC1c1cccc(N2C(=O)OCC2Cc2ccccc2)c1 (stereo in doubt) [Example 127, 2-[3-((R)4-Benzyl-2-oxo-oxazolidin-3-yl)-phenyl]-3,3-dimethyl-1,2,3,4-tetrahydro-quinoline-6-carboxylic acid]"
4,1.43,"CC1(C)Cc2cc(C(=O)O)ccc2NC1c1cccc(NC(=O)NCc2ccccc2)c1 (stereo not shown) [Example 1, 2-[3-(3-Benzyl-ureido)-phenyl]-3,3-dimethyl-1,2,3,4-tetrahydro-quinoline-6-carboxylic acid]"
5,1.42,"CC1(C)Cc2cc(Cl)cc(C(=O)NS(=O)(=O)C3CC3)c2NC1c1cccc(NC(=O)c2cnccn2)c1 (stereo not shown) [Example 2, Pyrazine-2-carboxylic acid [3-(6-chloro-8-cyclopropanesulfonylaminocarbonyl-3,3-dimethyl-1,2,3,4-tetrahydro-quinolin-2-yl)-phenyl]-amide]"
6,1.33,"CC1(C)Cc2cc(C(=O)O)ccc2NC1c1cccc(NC(=O)c2cccnc2)c1 (stereo not shown) [Example 3, 3,3-Dimethyl-2-{3-[(pyridine-3-carbonyl)-amino]-phenyl}-1,2,3,4-tetrahydro-quinoline-6-carboxylic acid]"
7,1.33,"CC1(C)Cc2cc(C(=O)O)ccc2NC1c1cccc(NC(=O)c2ccccn2)c1 (stereo not shown) [Example 4, 3,3-Dimethyl-2-{3-[(pyridine-2-carbonyl)-amino]-phenyl}-1,2,3,4-tetrahydro-quinoline-6-carboxylic acid]"
8,1.32,"CC1(C)Cc2cc(C(=O)O)ccc2NC1c1cccc(NC(=O)c2cnccn2)c1 (stereo not shown) [Example 5, 3,3-Dimethyl-2-{3-[(pyrazine-2-carbonyl)-amino]-phenyl}-1,2,3,4-tetrahydro-quinoline-6-carboxylic acid]"
9,1.31,"CC1(C)Cc2cc(C(=O)O)ccc2NC1c1cccc(NC(=O)c2cccc(F)c2)c1 (stereo not shown) [Example 6, 2-[3-(3-fluoro-benzoylamino)-phenyl]-3,3-dimethyl-1,2,3,4-tetrahydro-quinoline-6-carboxylic acid]"
10,1.31,"CC1(C)Cc2cc(C(=O)O)ccc2NC1c1cccc(C(=O)O)c1 (stereo not shown) [Example 7, 2-(3-Carbonyl-phenyl)-3,3-dimethyl-1,2,3,4-tetrahydro-quinoline-6-carboxylic acid]"
11,1.29,"CC1(C)Cc2cc(C(=O)NS(C)(=O)=O)ccc2NC1c1cccc(N2CCOCC2)c1 (stereo not shown) [Example 8, N-[3,3-dimethyl-2-(3-morpholin-4-yl-phenyl)-1,2,3,4-tetrahydro-quinoline-6-carbonyl]-methanesulfonamide]"
12,1.28,"CC1(C)Cc2cc(C(=O)NS(C)(=O)=O)ccc2NC1c1cccc(C(=O)Nc2ccccc2)c1 (stereo not shown) [Example 9, 3-(6-Methanesulfonylaminocarbonyl-3,3-dimethyl-1,2,3,4-tetrahydro-quinolin-2-yl)-N-phenyl-benzamide]"
13,1.27,"CC(C)S(=O)(=O)NC(=O)c1ccc2c(c1)CC(C)(C)C(c1cccc(N3CCOCC3)c1)N2 (stereo not shown) [Example 10, Propane-2-sulfonic acid [3,3-dimethyl-2-(3-morpholin-4-yl-phenyl)-1,2,3,4-tetrahydro-quinoline-6-carbonyl]-amide]"
14,1.25,"CC1(C)Cc2cc(C(=O)NS(C)(=O)=O)ccc2NC1c1cccc(NC(=O)c2cnccn2)c1 (stereo not shown) [Example 11, Pyrazine-2-carboxylic acid [3-(6-methanesulfonylaminocarbonyl-3,3-dimethyl-1,2,3,4-tetrahydro-quinolin-2-yl)-phenyl]-amide]"
15,1.22,"CC1(C)Cc2cc(C(=O)O)ccc2NC1c1cccc(NC(=O)c2ccccc2)c1 (stereo not shown) [Example 12, 2-(3-Benzoylamino-phenyl)-3,3-dimethyl-1,2,3,4-tetrahydro-quinoline-6-carboxylic acid]"
16,1.21,"CC1(C)Cc2cc(C(=O)O)ccc2NC1c1cccc(NC(=O)Nc2cccc(F)c2)c1 (stereo not shown) [Example 13, 2-{3-[3-(3-Fluoro-phenyl)-ureido]-phenyl}-3,3-dimethyl-1,2,3,4-tetrahydro-quinoline-6-carboxylic acid]"

row,E30,SMILES
1,1.2,"CC1(C)Cc2cc(C(=O)O)ccc2NC1c1cccc(C(=O)Nc2ccccc2)c1 (stereo not shown) [Example 14, 3,3-Dimethyl-2-(3-phenylcarbamoyl-phenyl)-1,2,3,4-tetrahydro-quinoline-6-carboxylic acid]"
2,3.59,"CC(C)(Nc1cccc(C2Nc3ccc(C(=O)O)cc3CC2(C)C)c1)C(=O)O (stereo not shown) [Example 15, 2-[3-(1-Carboxy-1-methyl-ethylamino)-phenyl]-3,3-dimethyl-1,2,3,4-tetrahydro-quinoline-6-carboxylic acid]"
3,1.59,"CN1CCN(c2cccc(C3Nc4ccc(C(=O)O)cc4CC3(C)C)c2)C1=O (stereo not shown) [Example 16, 3,3-Dimethyl-2-[3-(3-methyl-2-oxo-imidazolidin-1-yl)-phenyl]-1,2,3,4-tetrahydro-quinoline-6-carboxylic acid]"
4,1.45,"CC1(C)Cc2cc(C(=O)O)ccc2NC1c1cccc(N2CCNC2=O)c1 (stereo not shown) [Example 17, 3,3-Dimethyl-2-[3-(2-oxo-imidazolidin-1-yl)-phenyl]-1,2,3,4-tetrahydro-quinoline-6-carboxylic acid]"
5,1.41,"CC1(C)Cc2cc(C(=O)O)ccc2NC1c1cccc(N2CC(=O)NCC2=O)c1 (stereo not shown) [Example 18, 2-[3-(2,5-Dioxo-piperazin-1-yl)-phenyl]-3,3-dimethyl-1,2,3,4-tetrahydro-quinoline-6-carboxylic acid]"
6,1.38,"CC1(C)Cc2cc(C(=O)O)ccc2NC1c1cccc(N2CC(=O)NC2=O)c1 (stereo not shown) [Example 19, 2-[3-(2,4-Dioxo-imidazolidine-1-yl)-phenyl]-3,3-dimethyl-1,2,3,4-tetrahydro-quinoline-6-carboxylic acid]"
7,1.25,"CC1(C)Cc2cc(C(=O)O)ccc2NC1c1cccc(NC(=O)c2ccc(F)cc2)c1 (stereo not shown) [Example 20, 2-[3-(4-Fluoro-benzoylamino)-phenyl]-3,3-dimethyl-1,2,3,4-tetrahydro-quinoline-6-carboxylic acid]"
8,1.42,"CC1(C)Cc2cc(C(=O)O)ccc2NC1c1cccc(NC(=O)N2CCOCC2)c1 (stereo not shown) [Example 21, 3,3-Dimethyl-2-{3-[(morpholine-4-carbonyl)-amino]-phenyl}-1,2,3,4-tetrahydro-quinoline-6-carboxylic acid]"
9,1.39,"CC1(C)Cc2cc(C(=O)O)ccc2NC1c1cccc(NC(=O)N2CCCCC2)c1 (stereo not shown) [Example 22, 3,3-Dimethyl-2-{3-[(piperidine-1-carbonyl)-amino]-phenyl}-1,2,3,4-tetrahydro-quinoline-6-carboxylic acid]"
10,1.32,"CN(CC(=O)O)C(=O)c1ccc2c(c1)CC(C)(C)C(c1cccc(N3CCOCC3)c1)N2 (stereo not shown) [Example 23, {[3,3-Dimethyl-2-(3-morpholin-4-yl-phenyl)-1,2,3,4-tetrahydro-quinoline-6-carboxyl]-methyl-amino}-acetic acid]"
11,1.3,"CC1(C)Cc2cc(C(=O)N3CCC[C@H]3C(=O)O)ccc2NC1c1cccc(N2CCOCC2)c1 (stereo partly shown) [Example 24, 1-[3,3-Dimethyl-2-(3-morpholin-4-yl-phenyl)-1,2,3,4-tetrahydro-quinoline-6-carboxyl]-pyrrolidine-2-carboxylic acid]"
12,1.29,"CN(C)S(=O)(=O)Nc1cccc(C2Nc3ccc(C(=O)O)cc3CC2(C)C)c1 (stereo not shown) [Example 25, 2-(3-(N,N-dimethylsulfamoylamino)phenyl)-3,3-dimethyl-1,2,3,4-tetrahydroquinoline-6-carboxylic acid]"
13,1.27,"CC1(C)Cc2cc(C(=O)O)ccc2NC1c1cccc(N2CCN(c3ccccc3)C2=O)c1 (stereo not shown) [Example 26, 3,3-Dimethyl-2-[3-(2-oxo-3-phenyl-imidazolidin-1-yl)-phenyl]-1,2,3,4-tetrahydro-quinoline-6-carboxylic acid]"
14,1.24,"CN1CCN(C(=O)Nc2cccc(C3Nc4ccc(C(=O)O)cc4CC3(C)C)c2)CC1 (stereo not shown) [Example 27, 3,3-Dimethyl-2-{3-[(4-methyl-piperazine-1-carbonyl)-amino]-phenyl}-1,2,3,4-tetrahydro-quinoline-6-carboxylic acid]"
15,2.5,"CC(C)(Nc1cccc(C2Nc3ccc(C(=O)NS(C)(=O)=O)cc3CC2(C)C)c1)C(=O)O (stereo not shown) [Example 28, 2-[3-(6-Methanesulfonylaminocarbonyl-3,3-dimethyl-1,2,3,4-tetrahydro-quinolin-2-yl)-phenylamino]-2-methyl-propionic acid]"
